# Assays:
# Assay type in all cases: in vivo
# [1] = test system: Soybeans; assay: Soybean leaf chlorophyll content, FIELD SCOUT CM1000 chlorophyll meter, Sparta, Ill.; details: Harpinαβ 70 g/ha, Pyraclostrobin 0.44 l/ha
# Description: (§1) Soybeans were grown in 2009 at eight locations in the U.S.A.: Jefferson, I A, Seymour, Ill., Sparta, Ill., Wyoming, Ill., Sheridan, Ind., Ozora, Mo., York, Nebr., and Centerville, S. Dak. The soybeans were planted at the local standard seeding rate with local standard row spacing. Each trial was setup as randomized complete block design with 6 replications. Plots consisted of 4 rows with the center two rows treated and harvested. Harvested plot size was minimum 15 m^2.
# The active ingredients were used as formulations. The formulations were used in the dose rates given below. The products were applied when the soybeans had developed four to six trifoliates. Pyraclostrobin (compound A) was applied once as HEADLINE® (250 g active per liter; EC formulation) with a product rate of 0.44 I/ha.
# The harpinαβ peptide (compound B) was applied as the experimental WG formulation EBC-351 (1% active ingredient) with a product rate of 70 g/ha. The mixture comprising pyraclostrobin and harpinαβ as shown in table 2 below was applied as a tankmix of both formulations.
# At the Sparta, Ill., location, the chlorophyll content (a well known indicator of the health of a plant) of 5 plants in a plot was measured with a FIELD SCOUT CM1000™ (Spectrum Technologies, Plainfield, Ill.) chlorophyll meter. Values were reported as a mean value per plot. The FIELD SCOUT CM1000™ senses light at wavelengths of 700 nm and 840 nm to estimate quantity of chlorophyll in leaves. The ambient and reflected light at each wavelength is measured. Light absorbtion at 700 nm by chlorophyll reduces the reflection at this wavelength whereas the light at 840 nm is unaffected and serves as an indication of light reflection due to physical characteristics of the leaf like a hairy leaf surface. Subsequently, a chlorophyll index value (0-999) is calculated from the measured ambient and reflected light data.
# Based on the index values the efficacy of the treatments were calculated as described for the grain yield above. Similarly, the expected efficacy was estimated using Colby's formula as described above.
# [2] = test system: Maize (corn); assay: Maize field trials 2009, grain yield as indicator of plant health; details: BBCH 55/57; for Yield (kg/ha): seven US locations
# Description: Maize (corn) was grown in 2009 at seven locations in the U.S.A: Wyoming, Ill., Carlyle, Ill., Sparta, Ill., Manilla, Iowa, Blue Earth, Minn., Aurora, Nebr., and Tekamah, Nebr. The maize crop was planted at the local standard seeding rate with local standard row spacing. Each trial was set up as randomized complete block design with 8 replications. Plots consisted of 6-8 rows with the center two rows treated and harvested. Harvested plot size was at minimum 18.48 m^2.
# The active ingredients were used as formulations. The formulations were used in the dose rates given below. The products were applied at tassel emergence (BBCH 55/57). […] The untreated control plots were treated with water only.
# Grain yield (kg per ha) as an indicator for the health of a plant was assessed by harvesting the plants in the center rows of a plot (table 1). The efficacy was calculated as % increase of yield in the treatments compared to the untreated control using the following formula:
# (§2) E=a/b−1•100 • a corresponds to the grain yield of the treated plants in kg/ha and • b corresponds to the grain yield of the untreated (control) plants in kg/ha
# [3] = test system: Soybeans; assay: Soybean field trials 2009, grain yield as indicator of plant health
# Description: as §1
# The active ingredients were used as formulations. The formulations were used in the dose rates given below. The products were applied when the soybeans had developed four to six trifoliates.
# The mixture comprising pyraclostrobin and harpinαβ as shown in table 2 below was applied as a tankmix of both formulations.
# Grain yield (kg per ha) was assessed as an indicator of plant health (table 2) by harvesting the plants in the center rows of a plot. The efficacy was calculated as % increase of yield in the treatments compared to the untreated control:
# as §2
compound,measurement,setting,value
COC(=O)N(OC)c1ccccc1COc1ccn(-c2ccc(Cl)cc2)n1 [Pyraclostrobin],"effect on leaf chlorophyll content, in words",[1],increases the chlorophyll content
same,"OE [%] (Observed efficacy, chlorophyll index compared to the untreated control)","[1]; Sparta, Ill.",14.13%
same,"CC [0-999] (Chlorophyll Content, chlorophyll index value)","[1]; Sparta, Ill., mean value per plot, 5 plants",773.50
same,"OE [%] (Observed efficacy, % increase of yield compared to the untreated control)","[2]; Harpinαβ 35 g/ha, Pyraclostrobin 0.3 l/ha, alone or combined",1.10%
same,"OE [%] (Observed efficacy, % increase of yield compared to the untreated control)","[2]; Pyraclostrobin 0.6 l/ha, Harpinαβ 35 g/ha in the combination",0.10%
same,Yield (kg/ha),"[2]; product rates Harpinαβ 35 g/ha (1%), Pyraclostrobin 0.3 l/ha (250 g/l), alone or combined",13218.9 kg/ha
same,Yield (kg/ha),"[2]; product rates Pyraclostrobin 0.6 l/ha (250 g/l), Harpinαβ 35 g/ha (1%) in the combination",13087.1 kg/ha
same,"OE [%] (Observed efficacy, % increase of yield compared to the untreated control)","[3]; Harpinαβ 70 g/ha, Pyraclostrobin 0.44 l/ha, average of all trials",0.1%
same,"effect on grain yield, in words",[3]; Pyraclostrobin 0.44 l/ha applied at early soybean development,did not increase the grain yield on an average
same,Yield (kg/ha),"[3]; product rates Harpinαβ 70 g/ha (1%), Pyraclostrobin 0.44 l/ha (250 g/l), four to six trifoliates, eight US locations",3319 kg/ha

# Source: patent US20130274104A1, “AGROCHEMICAL MIXTURES FOR INCREASING THE HEALTH OF A PLANT” (BASF SE, priority 2010, published 2013)
